assay: Clinical evaluation of HHT888-10 in patients with otitis media or sore throat; type: in vivo, human; conditions: sixth patient; initial treatment with Erythromycin, Bactrium, and Naproxen together
Protocol: The extract powder prepared in Example IB of Pogostemon cablin (HHT888-10) was administered orally to a patient with recurrent otitis media at a dosage of 2 g twice a day ( total 4 gms per day) for 3 days.
A sixth patient was treated for sore throat, headache and fever. […] On the fifth day, the patient was treated with HHT888-10 at 2 g b.i.d. p.o. for 2 days.

Compound | fever and headache | sore throat
COc1ccc2cc([C@H](C)C(=O)O)ccc2c1 [Naproxen] | subsided | became worse
Bactrium | subsided | became worse
CC[C@H]1OC(=O)[C@H](C)[C@@H](O[C@H]2C[C@@](C)(OC)[C@@H](O)[C@H](C)O2)[C@H](C)[C@@H](O[C@@H]2O[C@H](C)C[C@H](N(C)C)[C@H]2O)[C@](C)(O)C[C@@H](C)C(=O)[C@H](C)[C@@H](O)[C@]1(C)O [Erythromycin] | subsided | became worse

From US20020106416A1, “Composition for inhibition of H. influenzae and treatment of otitis media and sore throat” (priority 1996, published 2002)
